Source: patent US12478602B2, “Method for treating a disorder” (priority 2023, dated 2025)

Columns and labels:
[1] = tested on: cortical layer 5 pyramidal neurons; experiment: Synaptic pruning: dendritic spine density; assay type: in vivo, mouse; conditions: 400 mg/kg orally for 2 weeks
Description: A mouse model of autism spectrum disorder was created with the method described in Example 1.1. It is known that in autism spectrum disorder, the number of dendrites increases more than necessary due to troubles in synaptic pruning at the critical stage. Therefore, an experiment, which checks whether or not the number of dendrites can be normalized by AST-001 administration, was carried out. After oral administration of 400 mg/kg of AST-001 for 2 weeks to 3-week-old male autism spectrum disorder mice (n=8), it was checked whether or not the spine density of the synaptic dendrites was similar to that of the control group male normal mice (n=3). […] As a result, it was confirmed that oral administration of AST-001 normalizes synaptic pruning at the critical stage in autism spectrum disorder.

[2] = tested on: mice having autism spectrum disorder; experiment: Spatial memory experiment (Y-maze test); assay type: in vivo, mouse; conditions: 180, 300, 480 or 600 mg/kg orally for 28 days; with increasing dosage
Description: Mice having autism spectrum disorder were created by the same method as in Example 1.1. The 3-week-old male mice having autism spectrum disorder were orally injected with 180, 300, 480, or 600 mg/kg of L-serine for 28 days and then subjected to a spatial memory test. Normal mice were used as a control group. Eight mice were used for each experimental group. The spatial working memory of the mice was evaluated through the Y-maze test. As the administration dosage of L-serine increased, the value of spontaneous alteration, which is a measure of spatial memory, increased (see FIG. 7).

[3] = tested on: pediatric patients having autism spectrum disorder; experiment: Clinical trial of 52-week continuous administration, safety
mPFC pyramidal neurons = experiment: Patch clamp of intrinsic excitability in BTBR mice; assay type: in vivo, mouse; conditions: 500 mg/kg orally for 2 weeks
Description: BTBR T+tf/J (BTBR), which is an animal of autism spectrum disorder, and C57BL/6 mice (used as a control group) were purchased from Jackson Laboratories. […] However, in a case where BTBR mice were orally administered with 500 mg/kg of AST-001 for 2 weeks, and then the firing rate of the action potential was measured, the firing rate of the action potential in the BTBR mice and the control group mice turned out to be similar (see FIG. 5B).

[4] = tested on: mice having autism spectrum disorder; experiment: Anxiety experiment (elevated plus maze) in mouse model of autism spectrum disorder; assay type: in vivo; conditions: 500 mg/kg orally once a day for 2 weeks; vs untreated autism spectrum disorder mouse
Source text: Pregnant C57BL/6 mice were subcutaneously injected with valproic acid (VPA) at the time when the gestation period reached 12 days. Male mice were selected from the mice that were born from the pregnant mice that were subcutaneously injected with VPA, and these were used as animals for a mouse model of autism spectrum disorder.
Since 3-week-old mice are at the critical stage, 3-week-old normal mice and 3-week-old mice having autism spectrum disorder were subjected to a sociality experiment, a social cognition experiment, and an anxiety experiment to identify the underlying features. 500 mg/kg of L-serine (hereinafter, referred to as AST-001) was orally administered for 2 weeks to mice having autism spectrum disorder, in which the underlying features had been confirmed. The mice having autism spectrum disorder, to which AST-001 had been orally administered for 2 weeks, were again subjected to a sociality experiment, a social cognition experiment, and an anxiety experiment.
For 2 weeks from the age of 3 weeks, the normal group and the autism spectrum disorder group were subjected to oral administration with water every day once a day, and in the drug group, mice having autism spectrum disorder were orally administered with 500 mg/kg of AST-001 (dissolved in water) once a day. […]

N[C@@H](CO)C(=O)O [AST-001, L-serine]
number of dendrites (spine density of the synaptic dendrites) [1]: significantly reduced and similar to that of the control group
spontaneous alteration [2]: increased
serious adverse events and deaths evaluated to be related ([3]; 52-week continuous administration): no serious adverse events and no deaths
COVID-19 infection adverse events ([3]; high dose group): 6 events
COVID-19 infection adverse events ([3]; low dose group): 5 events
firing rate of the action potential, BTBR mice vs control group mice (mPFC pyramidal neurons): similar
time staying in the closed-arm space of the elevated plus maze [4]: short time
time staying in the open-arm space of the elevated plus maze [4]: remarkably long time
